Consider seven compounds from publication PMC5614581, “Investigating cyclic nucleotide and cyclic dinucleotide binding to HCN channels by surface plasmon resonance” (PLoS ONE, 2017).

Assay [1] deals with C-linker/CNBDs of HCN4 channels. Particulars: read-out: binding affinity (FA), cited from earlier work.
The subject of assay [2] is full-length hHCN4 channels. Particulars: cited from earlier work; for effect on cyclic nucleotide modulation of the channel: in the presence of cyclic nucleotides.
Assay [3] deals with T1, C-linker/CNBD of mouse HCN2 (mHCN2, residues 443–645) (Mus musculus, UniProt O88703).
T1 sequence (O88703 443-645): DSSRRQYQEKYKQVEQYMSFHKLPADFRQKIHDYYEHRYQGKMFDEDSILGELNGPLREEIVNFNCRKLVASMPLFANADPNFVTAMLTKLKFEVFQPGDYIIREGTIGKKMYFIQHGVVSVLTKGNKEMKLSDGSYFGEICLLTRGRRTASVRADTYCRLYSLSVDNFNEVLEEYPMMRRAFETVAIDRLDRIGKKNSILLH
Kind of assay: SPR, immobilized mHCN2 C-linker/CNBD on NTA chip. As to conditions: for Kd: SPR.
Method: (§1) SPR experiments were performed at 25 °C on a Biacore 4000 Instrument (GE Healthcare). C-linker/CNBDs of wild-type and L586W mutant mHCN2, and hHCN4 channels were immobilized on a NTA chip (GE Healthcare), as previously described [31, 32]. Immobilizations of the proteins were performed in HBS-P buffer (150 mM NaCl, 10 mM HEPES, 0.05% (v/v) surfactant P20, pH 7.4). First the NTA sensor surface was activated with a 1 min injection of 0.5 M NiCl2. The coupling of the Ni^2+-NTA chip surface groups with the 6-His-tagged proteins was then achieved by 2.5 min injections of the proteins at 200 nM concentrations to the chip surface. After the initial capturing, the proteins were covalently cross-linked via 20 s injections of NHS-EDC carboxyl-reactive cross-linkers to prevent protein loss from the chip surface with successive analyte and buffer injections. This was followed by 20 s injection of 1 M ethanolamine to block the remaining reactive sites. The proteins were captured at ~1000–3000 resonance units (RU; 1 RU = 1 pg of protein per mm^2). […] This spot was used as a reference surface to account for a non-specific binding to the chip surface. The binding to the reference surface was subtracted from the binding to the surfaces with immobilized proteins. In addition, the binding corresponding to blank injections (buffer only) was subtracted from the reference subtracted SPR data.
(§2) The binding experiments were performed in the running buffer (150 mM KCl, 10% Glycerol, 1 mM TCEP, 30 mM HEPES, pH 7.5). Analytes over the range of concentrations were injected in triplicates over the chip surface for 60 s at a flow rate of 30 μl /min, followed by buffer only injections. The regeneration of the surface between the analyte injections was not necessary, as the baseline returned to the pre-injection levels. In some experiments we observed a drift in the baseline. […] However, there was minimal residual binding between analyte injections, as indicated by essentially the same binding response for triplicate repeats of analyte injections at the same concentrations.
(§3) Each experiment was repeated on at least three different NTA chips.
(§4) Therefore, concentrations higher than 300 μM were excluded from the analysis. The data analysis and fitting of the plots was performed in Origin (Microcal Software, Inc). Error bars indicate the SEM. […] For each NTA chip an analyte was injected three times. Therefore, each experiment was repeated at least 3xn times. Statistical analysis was performed by using one-way ANOVA. P < 0.05 was considered statistically significant.

Assay [4] has as its target T2, hHCN4 C-linker/CNBD (monomeric) (Homo sapiens, UniProt Q9Y3Q4).
T2 construct: human HCN4 (hHCN4, residues 521–723); made in house; host or cells: E. coli BL21 (DE3)
T2 sequence (Q9Y3Q4 521-723): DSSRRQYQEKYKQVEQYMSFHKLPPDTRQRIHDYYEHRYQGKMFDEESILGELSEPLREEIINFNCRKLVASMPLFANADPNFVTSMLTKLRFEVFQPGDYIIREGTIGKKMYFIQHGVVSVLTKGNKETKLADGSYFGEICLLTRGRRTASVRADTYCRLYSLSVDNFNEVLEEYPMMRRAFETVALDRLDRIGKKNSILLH
Briefly: ITC, 6 μM (monomeric) 6-His tagged hHCN4 C-linker/CNBD. Format: binding. Particulars: 6 μM C-linker/CNBD. For orientation: In ITC the heat of successive injections is recorded.
Method: (§5) For ITC experiments at low concentrations of the hHCN4 C-linker/CNBD the protein was concentrated to 6 μM and dialyzed in 150 mM KCl, 1 mM TCEP, 30 mM HEPES, pH 7.5 overnight at 4°C using a Slide-A-Lyzer dialysis cassette (ThermoFisher Scientific). For ITC experiments at high concentrations of the hHCN4 C-linker/CNBD the protein was concentrated to 80 μM and dialyzed in 100 mM KCl, 1 mM TCEP, 20 mM HEPES, pH 7.0 overnight at 4°C using a Slide-A-Lyzer cassette. The protein solutions were degassed prior to each experiment. ITC titrations were performed at 25°C using the ITC200 calorimeter (Malvern Instruments Inc. Westborough, MA). […] Data analysis was performed with NITPIC and SEDFAT [34, 35] using a single-site binding model for 6 μM C-linker/CNBDs and a two independent binding site model for 80 μM C-linker/CNBDs, as used by Chow et al. [36].

The target in assay [5] is T3, hHCN4 C-linker/CNBD (tetrameric) (Homo sapiens, UniProt Q9Y3Q4).
T3 construct: C-linker/CNBD of hHCN4 (residues 521–723); made in house; host or cells: E. coli BL21 (DE3)
T3 sequence (Q9Y3Q4 521-723): T2 sequence (Q9Y3Q4 521-723)
Kind of assay: ITC, 80 μM (tetrameric) hHCN4 C-linker/CNBD after MBP tag cleavage. The format is binding. As to conditions: 80 μM C-linker/CNBD.
Method: as §5

Assay [6] deals with T4, C-linker/CNBD of human HCN4 (hHCN4, residues 521–723) (Homo sapiens, UniProt Q9Y3Q4).
T4 sequence (Q9Y3Q4 521-723): T2 sequence (Q9Y3Q4 521-723)
Kind of assay: SPR, immobilized hHCN4 C-linker/CNBD on NTA chip. Particulars: for SPR binding response: analyte alone (no added cAMP), 300 μM or range up to 300 μM; for SPR binding response in the presence of cAMP: in the presence of 100 μM cAMP, analyte 300 μM or range up to 300 μM. In general terms: SPR reads the build-up and loss of mass on a sensor chip optically.
Method: as §1, §2, §3, §4

Assay [7] deals with T5, mHCN2-L586W C-linker/CNBD (Mus musculus, UniProt O88703, L586W).
T5 construct: mouse HCN2 (mHCN2, residues 443–645); made in house; host or cells: E. coli BL21 (DE3)
T5 sequence (O88703 443-645 L586W): T1 sequence (O88703 443-645) with L144W
Kind of assay: SPR, immobilized mHCN2-L586W C-linker/CNBD on NTA chip. Format: binding. As to the method:
Error bars indicate the SEM. […] Statistical analysis was performed by using one-way ANOVA. P < 0.05 was considered statistically significant.

Assay [8] deals with full-length HCN2 channels. As to conditions: read-out: affinity for full-length HCN2 channels, electrophysiology; cited from earlier work.
Assay [9] addresses isolated C-linker/CNBDs of HCN2 channels. As to conditions: cGMP; read-out: binding affinity (ITC); cited from earlier work.
Assay [10] has as its target mHCN2-L586W C-linker/CNBDs. As to conditions: read-out: binding affinity (tryptophan fluorescence); cited from earlier work.
Assay [11] addresses isolated C-linker/CNBDs of HCN2 channels. As to conditions: read-out: binding affinity (FA); cited from earlier work.
The target is the same in assay [12]. As to conditions: read-out: binding affinity (SPR, ligand coupled to CM5 chip); cited from earlier work.
Assay [13] addresses isolated C-linker/CNBDs of HCN4 channels. Particulars: read-out: binding affinity (SPR, ligand coupled to CM5 sensor); cited from earlier work.
Setting [14] is: analyte alone (no added cAMP), 300 μM.
[15] abbreviates: in the presence of 100 μM cAMP, analyte 300 μM.

Where a chain is given by its changes, count along the chain named. “Also recorded” adds a separate entry of the source. Where two headings read alike, the source gives them in different places.

Regarding `Nc1nc2c(nc(SCCNC(=S)Nc3ccc4c(c3)C(=O)OC43c4ccc(O)cc4Oc4cc(O)ccc43)n2[C@@H]2O[C@@H]3COP(=O)(O)O[C@H]3[C@H]2O)c(=O)[nH]1` [8-Fluo-cGMP], in assay [1] (8-Fluo-cGMP), the Kd was 700 nM.
Turning to `Nc1nc2c(ncn2[C@@H]2O[C@@H]3COP(=O)(O)O[C@H]4[C@@H](O)[C@H](n5cnc6c(N)ncnc65)O[C@@H]4COP(=O)(O)O[C@@H]2[C@@H]3O)c(=O)[nH]1` [cGAMP], in assay [2], the “effect on cyclic nucleotide modulation of the channel” value (from here on “effect … of the channel”) is listed as “antagonized the effect of cyclic nucleotides”. In [3], the SPR binding response entry was “did not detect any binding” and the “SPR binding response in the presence of cAMP” value (“SPR binding response … of cAMP” below) is “did not detect any binding”.
As for `Nc1nc2c(ncn2[C@@H]2O[C@@H]3COP(=O)(O)O[C@H]4[C@@H](O)[C@H](n5cnc6c(=O)[nH]c(N)nc65)O[C@@H]4COP(=O)(O)O[C@H]3[C@H]2O)c(=O)[nH]1` [c-di-GMP], the “binding (ITC)” value was “no binding” in assay [4] (absence of cAMP, titrated with 300 μM ligand) and “no binding” in assay [5] (absence of cAMP). In addition, the “binding (ITC) in the presence of cAMP” value is listed as “no binding” in [4] (presence of 100 μM cAMP in ligand and protein solutions); “no binding” in assay [5] (presence of 1 mM cAMP). The “effect on the cAMP-induced V1/2 shift” value in assay [2] (100 μM c-di-GMP, 15 μM cAMP) was “completely abolishing the effect of 15 μM cAMP”. Moreover, the IC50 in assay [2] (in the presence of 15 μM cAMP, read-out: apparent affinity for decreasing the cAMP-induced positive shift in V1/2) is 1800 nM. Further, the “effect … of the channel” value in assay [2] is given as “antagonized the effect of cyclic nucleotides”. Also, the SPR binding response result is reported as “did not detect any binding” in assay [3] (setting [14]), “No increase in the binding response; also recorded: did not show any cyclic dinucleotide binding” in [6] and “did not detect any binding” in assay [6] (listed as c-diGMP). The “SPR binding response … of cAMP” value in [3] (setting [15]) was “did not detect any binding”; in assay [6], “No increase in the binding response; also recorded: did not show any cyclic dinucleotide binding”; in [6] (listed as c-diGMP) it was “did not detect any binding”.
Consider `Nc1ncnc2c1ncn2[C@@H]1O[C@@H]2COP(=O)(O)O[C@H]3[C@@H](O)[C@H](n4cnc5c(N)ncnc54)O[C@@H]3COP(=O)(O)O[C@H]2[C@H]1O` [c-di-AMP], for which, in assay [2], the “effect … of the channel” value was “antagonized the effect of cyclic nucleotides”. The SPR binding response result was “No increase in the binding response” in assay [3] (setting [14]); “did not detect any binding” in assay [3] (analyte alone (no added cAMP), 300 μM, listed as c-diAMP); “No increase in the binding response; also recorded: did not show any cyclic dinucleotide binding” in assay [6]; “did not detect any binding” in assay [6] (listed as c-diAMP). Besides, the “SPR binding response … of cAMP” value in [3] (setting [15]) was “No increase in the binding response”; in assay [3] (in the presence of 100 μM cAMP, analyte 300 μM, listed as c-diAMP), “did not detect any binding”; in assay [6], “No increase in the binding response; also recorded: did not show any cyclic dinucleotide binding”; in [6] (listed as c-diAMP), “did not detect any binding”.
For `Nc1nc2c(ncn2[C@@H]2O[C@@H]3COP(=O)(O)O[C@H]3[C@H]2O)c(=O)[nH]1` [cGMP], the Kd was over 73.9 µM in [7] (averaged over different NTA chips, for cGMP only a limit could be estimated, read-out: Kd (averaged binding affinity)); at least 70.1 µM in [7] (single surface, Fig 2D, read-out: binding affinity (fit of representative dose response plot)); 8.5 µM in assay [9]; 62 ± 23 µM in assay [10]; 13.4 ± 2 µM in [3] (read-out: Kd (averaged binding affinity), averaged over different NTA chips, 25 °C, Hill fit); 12.3 ± 1.1 µM in [3] (read-out: binding affinity (fit of representative dose response plot), single surface, Fig 1E). Moreover, the Kd is 5.5 ± 0.9 µM in assay [6] (read-out: Kd (averaged binding affinity), SPR, averaged over different NTA chips) and 5.6 ± 0.2 µM in assay [6] (read-out: binding affinity (fit of representative dose response plot), SPR, single surface, Fig 3C). Moreover, the EC50 in [8] is about 6 µM; in assay [2] (cGMP, read-out: affinity for full-length hHCN4 channels, electrophysiology) it was 13.2 µM. Moreover, the “affinity for hHCN4 relative to mHCN2 domains” value in [6] (SPR, P < 0.05 by ANOVA) is listed as “about two-fold higher”. The SPR binding response result in assay [6] is reported as “robust response”.
With `Nc1ncnc2c1nc(SCCNC(=S)Nc1ccc(-c3c4ccc(=O)cc-4oc4cc(O)ccc34)c(C(=O)O)c1)n2C1OC2COP(=O)(O)OC2C1O` (stereo not drawn) [8-Fluo-cAMP], the Kd in [11] is 300 to 700 nM; in assay [1] (8-Fluo-cAMP), 180 to 280 nM.
For the compound `NCCCCCCNc1nc2c(N)ncnc2n1[C@@H]1O[C@@H]2COP(=O)(O)O[C@H]2[C@H]1O` [8-AHA-cAMP], the Kd was 10 µM in [12] and 11 µM in assay [13].
